Values quoted from earlier work as cited in article PMC3779694 (Hepatology (Baltimore, Md.), 2011).

Test system: subjects with a variety of chronic liver diseases, mostly chronic hepatitis C
Settings: five subjects with NASH, 14-day regimen; cited from earlier work

C[C@H](NC(=O)C(=O)Nc1ccccc1C(C)(C)C)C(=O)N[C@@H](CC(=O)O)C(=O)COc1c(F)c(F)cc(F)c1F [IDN-6556]
ALT reduction in subjects with NASH: 59%
